Our source for the MIC values is ChEMBL document CHEMBL3044981, “Production and optimization of oxytetracycline by a new isolate Streptomyces rimosus using response surface methodology” (2012).

In brackets after ≈: the same amount, converted by molar mass.

Common to all, as to type: functional
One assay relates to Pseudomonas aeruginosa. Kind of assay: Antibacterial activity against multidrug-resistant Pseudomonas aeruginosa by broth dilution method.
The subject of another assay is Klebsiella pneumoniae. As to the kind of experiment: Antibacterial activity against multidrug-resistant Klebsiella pneumoniae MTCC 2405 by broth dilution method.
The next assay deals with Proteus vulgaris. Kind of assay: Antibacterial activity against multidrug-resistant Proteus vulgaris MTCC 1771 by broth dilution method. For orientation: Dilution methods test growth across graded concentrations, often in twofold steps.
A further assay concerns Escherichia coli. Kind of assay: Antibacterial activity against multidrug-resistant Escherichia coli MTCC 1667 by broth dilution method.
The next assay has as its system Salmonella typhi. As to the kind of experiment: Antibacterial activity against multidrug-resistant Salmonella enterica subsp. enterica serovar Typhi MTCC 734 by broth dilution method.
Assay [1] deals with Staphylococcus epidermidis. As to the kind of experiment: Antibacterial activity against multidrug-resistant Staphylococcus epidermidis MTCC 435 by broth dilution method.
The subject of another assay is Staphylococcus aureus. As to the kind of experiment: Antibacterial activity against multidrug-resistant Staphylococcus aureus MTCC 737 by broth dilution method.

As to `CN(C)[C@@H]1C(O)=C(C(N)=O)C(=O)[C@@]2(O)C(O)=C3C(=O)c4c(O)cccc4[C@@](C)(O)[C@H]3[C@H](O)[C@@H]12` [OXYTETRACYCLINE], the minimum inhibitory concentration (MIC) (usually the least concentration at which growth counts as inhibited) in the assay on Pseudomonas aeruginosa was determined as 12.5 µg/mL (≈ 27.1 µM); with Klebsiella pneumoniae it was 12.5 µg/mL (≈ 27.1 µM); against Proteus vulgaris it was 12.5 µg/mL (≈ 27.1 µM); in the assay on Escherichia coli, 6.25 µg/mL (≈ 13.6 µM); with Salmonella typhi, 3 µg/mL (≈ 6.52 µM); in assay [1], 3 µg/mL (≈ 6.52 µM). The compound further showed an MIC against Staphylococcus aureus of 3 µg/mL (≈ 6.52 µM).
